Read-outs that look alike come from different tables or passages of the source.
What was measured:
Type in all cases: cell-based
[1] = tested on: HIV-1 pseudovirus pseudotyped with HXB2 Env; assay: microbe, parasite or virus in culture; details: TZM-bl cells, HIV-1 pseudovirus with HXB2 Env
TZM-bl cells = assay: Cytotoxicity in TZM-bl cells (XTT); details: 3 days
Method: (§1) The cytotoxicity of test compounds in TZM-bl cells was also measured by the XTT method described previously^7. […] The soluble intracellular formazan was quantitated colorimetrically at 450 nm 4 h later. The percent of cytotoxicity and the CC50 values were calculated as above. (See Table 4)

[2] = Cytotoxicity in TZM-bl cells (XTT); details: human
Method: as §1

PBMC = assay: Cytotoxicity in PBMC (XTT); details: 7 days
Method: For the PBMC toxicity assay we used 5×10^5 cells/ml and the cytotoxicity of the compounds was measured after 7 days of incubation as previously reported^8. Following the addition of XTT the soluble intracellular formazan was quantitated colorimetrically at 450 nm 4 h later. The percent of cytotoxicity and the CC50 values were calculated as above. (See Table 4)

[3] = tested on: panel of HIV-1 ENV-pseudoviruses (subtype A, A/D, A2/D, A/E, A/G, B, C and D); assay: microbe, parasite or virus in culture
[4] = Human immunodeficiency virus 1, HXB2, TZM-bl

SMILES	IC50 [1, 4] [µM]	other results
Cc1nc(C(NC(=O)c2ccc(-c3ccc(Cl)c(F)c3)[nH]2)C2CCCCN2)sc1CCO (single isomer, unassigned) [Compound 26]	7.5 ± 0.2	
CNc1cc(NC(=O)c2ccc(-c3ccc(F)c(Cl)c3)[nH]2)nc(NC(=N)N)n1 [Compound 53]	> 36	
Cc1nc(C(CCN(C)C)NC(=O)c2ccc(-c3ccc(Cl)cc3)[nH]2)sc1CO (stereo not drawn) [Compound 80]	14.2 ± 0.7	
Cc1nc(C(CN(C)C)NC(=O)c2ccc(-c3ccc(Cl)c(F)c3)[nH]2)sc1CO (stereo not drawn) [Compound 71]	3.6 ± 1	
CCN(CC)Cc1ccc(OC)c(CNC(=O)c2ccc(-c3ccc(Cl)cc3)[nH]2)c1 [Compound 13]	4.3 ± 0.1	
Cc1nc(C(NC(=O)c2ccc(-c3ccc(Cl)cc3)[nH]2)C2CCCCN2)sc1CCCO (stereo not drawn) [Compound 32]	7.6 ± 0.8	
Cc1nc(C(CN)NC(=O)c2cnc(-c3ccc(Cl)cc3)[nH]2)sc1CO (stereo not drawn) [Compound 97]	> 51	
Cc1cc(-c2ccc(Cl)cc2)[nH]c1C(=O)NC(CN)c1nc(C)c(CO)s1 (stereo not drawn) [Compound 73]	2.2 ± 0.8	
CN1CCN(NC(=O)C(CCCNC(=N)N)NC(=O)c2ccc(-c3ccc(Cl)cc3)[nH]2)CC1 (stereo not drawn) [Compound 8]	> 42	
Cc1nc(C(CN)NC(=O)c2cc3ccccc3[nH]2)sc1CO (stereo not drawn) [Compound 63]		IC50 [1]: > 60 µM; CC50 (TZM-bl cells): > 60 µM
Cc1nc(C(NC(=O)c2ccc(-c3ccc(Cl)c(F)c3)[nH]2)C2CCCCN2)sc1CO (single isomer, unassigned) [Compound 20]	3 ± 0.4	
CC(=O)NCC(NC(=O)c1ccc(-c2ccc(Cl)c(F)c2)[nH]1)c1nc(C)c(CO)s1 (stereo not drawn) [Compound 64]	~40	
Cc1nc(C(CNC(=N)N)NC(=O)c2ccc(-c3ccc(Cl)cc3)[nH]2)sc1CO (single isomer, unassigned) [Compound 45]	> 37	
Cc1nc(C(CN)NC(=O)c2cc3ccccc3[nH]2)sc1CO (stereo not drawn) [Compound 62]	> 60	CC50 at 3 days [2]: > 60 µM
O=C(NC(c1ccccc1)c1ccc[nH]1)c1ccc(-c2ccc(Cl)cc2)[nH]1 (stereo not drawn) [Compound 1]	16.4 ± 1.5	
N=C(N)NCCCC(NC(=O)c1ccc(-c2ccc(Cl)cc2)[nH]1)C(=O)NN1CCOCC1 (stereo not drawn) [Compound 9]	> 40	
Cc1nc(C(CN)NC(=O)c2ccc(-c3ccc(Cl)c(F)c3)[nH]2)sc1CO (single isomer, unassigned) [Compound 51]	1.4 ± 0.5	
Cc1nc(C(CCN)NC(=O)c2ccc(-c3ccc(Cl)c(F)c3)[nH]2)sc1CO (stereo not drawn) [Compound 90]	4.1 ± 1.5	
NS(=O)(=O)c1ccc(CCNC(=O)c2ccc(-c3ccc(Cl)cc3)[nH]2)cc1 [Compound 14]	> 50	
Cc1ccc(-c2ccc(C(=O)NC(CNC(=N)N)c3nc(C)c(CO)s3)[nH]2)cc1F (single isomer, unassigned) [Compound 49]	> 28	
Cc1cc(C(=O)NC(CN)c2nc(C)c(CO)s2)[nH]c1-c1ccc(Cl)cc1 (stereo not drawn) [Compound 101]	3.6 ± 0.4	
Nc1nc(CNC(=O)c2ccc(-c3ccc(Cl)cc3)[nH]2)n[nH]1 [Compound 2]	> 63	
Cc1nc(C(NC(=O)c2ccc(-c3ccc(Cl)cc3)[nH]2)C2CCCCN2)sc1CCO (single isomer, unassigned) [Compound 28]	8.9 ± 0.2	
N=C(N)NCCCC(NC(=O)c1ccc(-c2ccccc2)[nH]1)C(=O)NN1CCOCC1 (stereo not drawn) [Compound 10]	> 43	
N=C(N)NCCCC(NC(=O)c1ccc(-c2ccccc2)[nH]1)C(=O)NCCO (stereo not drawn) [Compound 5]	> 47	

SMILES	IC50 [1, 4] [µM]	other results
Cc1ccc(-c2ccc(C(=O)NC(c3nc(C)c(CCCO)s3)C3CCCCN3)[nH]2)cc1F (single isomer, unassigned) [Compound 30]	11.2 ± 0.7	
Cc1nccn1Cc1ccc(CNC(=O)c2ccc(-c3ccc(Cl)cc3)[nH]2)o1 [Compound 12]	14.1 ± 1.3	
NCC(NC(=O)c1ccc(-c2ccc(Cl)c(F)c2)[nH]1)c1ncc(CO)s1 (stereo not drawn) [Compound 94]	1.1 ± 0.8	
CS(=O)(=O)NCCNC(=O)C(CCCNC(=N)N)NC(=O)c1ccc(-c2ccccc2)[nH]1 (stereo not drawn) [Compound 7]	> 43	
N=C(N)Nc1ccc(CC(NC(=O)c2ccc(-c3ccc(Cl)cc3)[nH]2)C(=O)N2CCOCC2)cc1 (stereo not drawn) [Compound 3]	> 36	
Cc1ccc(-c2ccc(C(=O)NC(c3nc(C)c(CO)s3)C3CCCCN3)[nH]2)cc1F (single isomer, unassigned) [Compound 22]	2.7 ± 0.2	
Cc1nc(C(CN)NC(=O)c2cnc(-c3ccc(Cl)cc3)[nH]2)sc1CO (stereo not drawn) [Compound 98]		IC50 [1]: > 51 µM
Cc1ccc(-c2ccc(C(=O)NC(CCN(C)C)c3nc(C)c(CO)s3)[nH]2)cc1F (stereo not drawn) [Compound 76]	11 ± 2.5	
N=C(N)NCCCC(NC(=O)c1ccc(-c2ccc(Cl)cc2)[nH]1)C(=O)NCCO (stereo not drawn) [Compound 4]	> 44	
Cc1nc(C(NC(=O)c2ccc(-c3ccc(Cl)cc3)[nH]2)C2CCCCN2)[nH]c1CO (single isomer, unassigned) [Compound 33]	14 ± 0.1	
Cc1nc(C(CNC(=N)N)NC(=O)c2ccc(-c3ccc(Cl)c(F)c3)[nH]2)sc1CO (single isomer, unassigned) [Compound 48]	> 27	
Cc1ccc(-c2ccc(C(=O)NC(CN)c3nc(C)c(CO)s3)[nH]2)cc1F (single isomer, unassigned) [Compound 43]	1.7 ± 0.4	
Cc1nc(C(CN(C)C)NC(=O)c2ccc(-c3ccc(Cl)cc3)[nH]2)sc1CO (stereo not drawn) [Compound 66]	16.5 ± 3.4	
Cc1nc(C(CN)NC(=O)c2cc3cc(Cl)ccc3[nH]2)sc1CO (stereo not drawn) [Compound 61]		IC50 [1]: ~50 µM; CC50 (TZM-bl cells): > 55 µM
Cc1nc(C(NC(=O)C(=O)Nc2ccc(Cl)cc2)C2CCCCN2)sc1CO (stereo not drawn) [NBD-09027]		CC50 (PBMC): > 160 µM
Cc1nc(C(CN)NC(=O)c2ccc(-c3ccc(Cl)cc3)[nH]2)sc1CO (single isomer, unassigned) [Compound 40]		IC50 ([3]; Human immunodeficiency virus 1, TZM-bl, read-out: IC50 (μM) ± S.D., subtype B, ENV B41): 0.28 ± 0.03 µM; IC50 ([3]; Human immunodeficiency virus 1, TZM-bl, read-out: IC50 (μM) ± S.D., subtype B, NIH # 11024, ENV AC10.0, clone 29): 0.29 ± 0.03 µM; IC50 ([3]; Human immunodeficiency virus 1, TZM-bl, read-out: IC50 (μM) ± S.D., subtype B, NIH # 11578, ENV pWEAUd15.410.5017): 0.28 ± 0.04 µM; IC50 ([3]; subtype A, ENV BG505-T332N, read-out: IC50 (μM) ± S.D.): 0.33 ± 0.04 µM
CS(=O)(=O)NCCNC(=O)C(CCCNC(=N)N)NC(=O)c1ccc(-c2ccc(Cl)cc2)[nH]1 (stereo not drawn) [Compound 6]	> 37	
CC(=O)NCC(NC(=O)c1ccc(-c2ccc(Cl)c(F)c2)[nH]1)c1nc(C)c(COC(C)=O)s1 (stereo not drawn) [Compound 70]	> 40	
CC(=O)NCC(NC(=O)c1ccc(-c2ccc(Cl)c(F)c2)[nH]1)c1nc(C)c(CO)s1 (stereo not drawn) [Compound 65]		IC50 [1]: ~40 µM
Cc1nc(C(CN)NC(=O)c2ncc(-c3ccc(Cl)cc3)[nH]2)sc1CO (stereo not drawn) [Compound 99]	34.9 ± 3	
Cc1nc(C(NC(=O)c2ccc(-c3ccc(Cl)c(F)c3)[nH]2)C2CCCCN2)[nH]c1CO (single isomer, unassigned) [Compound 35]	9 ± 0.2	
Cc1nc(C(NC(=O)c2ccc(-c3ccc(Cl)c(F)c3)[nH]2)C2CCCCN2)sc1CCCO (single isomer, unassigned) [Compound 31]	5.1 ± 0.7	
Cc1nc(C(CN)NC(=O)c2cc3cc(Cl)ccc3[nH]2)sc1CO (stereo not drawn) [Compound 60]	> 40	CC50 at 3 days [2]: ~47 µM
Cc1ccc(-c2ccc(C(=O)NC(c3nc(C)c(CCO)s3)C3CCCCN3)[nH]2)cc1F (single isomer, unassigned) [Compound 24]	10.6 ± 0.1	
Cc1n[nH]c(C)c1CNC(=O)c1ccc(-c2ccc(Cl)cc2)[nH]1 [Compound 11]	~60	

Reference: US10576059B2, “Substituted phenylpyrrolecarboxamides with therapeutic activity in HIV” (New York Blood Center, Inc., priority 2014, dated 2020)
